pIC50: −log10 of the molar value.
How the values were obtained:
[1] = biological target: Stromelysin-1 (Homo sapiens, UniProt P08254); assay: Inhibition of Matrix metalloprotease-3 (MMP-3) in fluorimetric assay
[2] = biological target: T1, Interstitial collagenase (Homo sapiens, UniProt P03956); assay: In vitro selective inhibition against matrix metalloprotease-1 (MMP-1) using a fluorimetric assay
T1 sequence (P03956 whole entry): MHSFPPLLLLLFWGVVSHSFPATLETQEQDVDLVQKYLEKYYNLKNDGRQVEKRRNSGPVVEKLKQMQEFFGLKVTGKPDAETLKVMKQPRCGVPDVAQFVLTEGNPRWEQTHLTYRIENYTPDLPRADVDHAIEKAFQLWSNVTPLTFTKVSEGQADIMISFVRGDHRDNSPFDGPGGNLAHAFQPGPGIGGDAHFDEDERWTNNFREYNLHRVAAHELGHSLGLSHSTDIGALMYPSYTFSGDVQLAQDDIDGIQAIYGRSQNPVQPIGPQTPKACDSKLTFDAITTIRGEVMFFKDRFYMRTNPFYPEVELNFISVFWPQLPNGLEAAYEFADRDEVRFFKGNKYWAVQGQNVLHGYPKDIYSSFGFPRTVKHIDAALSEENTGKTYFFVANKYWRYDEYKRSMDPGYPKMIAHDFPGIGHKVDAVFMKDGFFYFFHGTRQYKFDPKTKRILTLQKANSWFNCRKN

[3] = biological target: 72 kDa type IV collagenase (Homo sapiens, UniProt P08253); assay: In vitro selective inhibition against matrix metalloprotease-2 (MMP-2) using fluorimetric assay
[4] = biological target: Matrix metalloproteinase-9 (Homo sapiens, UniProt P14780); assay: In vitro selective inhibition against Matrix metalloprotease-9 (MMP-9) using fluorimetric assay
[5] = tested on: THP-1; assay: Selective inhibition of the cellular TNF alpha release from LPS-stimulated THP-1 cells; assay type: functional, cell-based; settings: Homo sapiens
[6] = biological target: T2, Matrilysin (Homo sapiens, UniProt P09237); assay: Inhibition of Matrix metalloprotease-7 (MMP-7) in fluorimetric assay
T2 sequence (P09237 whole entry): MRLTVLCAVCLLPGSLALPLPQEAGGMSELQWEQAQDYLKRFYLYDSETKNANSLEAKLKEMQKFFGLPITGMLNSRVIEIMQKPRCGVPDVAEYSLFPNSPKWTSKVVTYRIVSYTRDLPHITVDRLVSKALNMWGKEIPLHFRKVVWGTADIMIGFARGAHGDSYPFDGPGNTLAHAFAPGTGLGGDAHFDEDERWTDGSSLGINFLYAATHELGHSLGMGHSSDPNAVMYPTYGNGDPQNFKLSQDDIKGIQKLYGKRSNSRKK

[7] = biological target: Neutrophil collagenase (Homo sapiens, UniProt P22894); assay: Inhibition of Matrix metalloprotease-8 (MMP-8) in fluorimetric assay
[8] = biological target: Collagenase 3 (Homo sapiens, UniProt P45452)
Description: Inhibition of Matrix metalloprotease-13 (MMP-13) in fluorimetric assay

Sequence of 72 kDa type IV collagenase (P08253 whole entry): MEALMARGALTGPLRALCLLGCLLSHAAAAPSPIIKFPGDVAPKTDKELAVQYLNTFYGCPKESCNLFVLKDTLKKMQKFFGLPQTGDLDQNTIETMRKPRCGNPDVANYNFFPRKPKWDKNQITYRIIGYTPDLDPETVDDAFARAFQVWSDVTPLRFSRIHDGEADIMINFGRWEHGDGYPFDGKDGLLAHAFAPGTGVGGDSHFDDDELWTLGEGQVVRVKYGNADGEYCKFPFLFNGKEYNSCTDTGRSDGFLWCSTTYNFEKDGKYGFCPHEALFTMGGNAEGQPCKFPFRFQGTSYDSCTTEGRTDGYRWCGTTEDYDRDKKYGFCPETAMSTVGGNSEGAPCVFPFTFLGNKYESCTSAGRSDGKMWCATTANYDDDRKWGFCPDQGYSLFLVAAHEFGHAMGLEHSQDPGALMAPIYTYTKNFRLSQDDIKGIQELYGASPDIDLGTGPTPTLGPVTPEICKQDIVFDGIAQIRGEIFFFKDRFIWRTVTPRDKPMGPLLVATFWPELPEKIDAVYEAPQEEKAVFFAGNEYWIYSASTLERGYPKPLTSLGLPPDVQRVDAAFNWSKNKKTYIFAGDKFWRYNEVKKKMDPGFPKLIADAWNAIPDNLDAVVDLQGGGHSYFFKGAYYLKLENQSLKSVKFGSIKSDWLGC
Sequence of Neutrophil collagenase (P22894 whole entry): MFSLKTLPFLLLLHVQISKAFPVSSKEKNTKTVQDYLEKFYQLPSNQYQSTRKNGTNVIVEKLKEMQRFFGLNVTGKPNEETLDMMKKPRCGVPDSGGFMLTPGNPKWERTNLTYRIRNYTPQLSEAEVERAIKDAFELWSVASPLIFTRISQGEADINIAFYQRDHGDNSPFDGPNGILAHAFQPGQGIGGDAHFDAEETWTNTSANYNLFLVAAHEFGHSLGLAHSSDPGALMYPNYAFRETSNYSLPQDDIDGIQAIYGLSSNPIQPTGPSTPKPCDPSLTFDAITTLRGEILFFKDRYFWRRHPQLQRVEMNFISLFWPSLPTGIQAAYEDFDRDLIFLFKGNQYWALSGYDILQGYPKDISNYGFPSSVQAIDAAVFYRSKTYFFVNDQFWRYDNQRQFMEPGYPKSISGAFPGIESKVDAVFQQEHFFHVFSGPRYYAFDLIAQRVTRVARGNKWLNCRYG
Sequence of Matrix metalloproteinase-9 (P14780 whole entry): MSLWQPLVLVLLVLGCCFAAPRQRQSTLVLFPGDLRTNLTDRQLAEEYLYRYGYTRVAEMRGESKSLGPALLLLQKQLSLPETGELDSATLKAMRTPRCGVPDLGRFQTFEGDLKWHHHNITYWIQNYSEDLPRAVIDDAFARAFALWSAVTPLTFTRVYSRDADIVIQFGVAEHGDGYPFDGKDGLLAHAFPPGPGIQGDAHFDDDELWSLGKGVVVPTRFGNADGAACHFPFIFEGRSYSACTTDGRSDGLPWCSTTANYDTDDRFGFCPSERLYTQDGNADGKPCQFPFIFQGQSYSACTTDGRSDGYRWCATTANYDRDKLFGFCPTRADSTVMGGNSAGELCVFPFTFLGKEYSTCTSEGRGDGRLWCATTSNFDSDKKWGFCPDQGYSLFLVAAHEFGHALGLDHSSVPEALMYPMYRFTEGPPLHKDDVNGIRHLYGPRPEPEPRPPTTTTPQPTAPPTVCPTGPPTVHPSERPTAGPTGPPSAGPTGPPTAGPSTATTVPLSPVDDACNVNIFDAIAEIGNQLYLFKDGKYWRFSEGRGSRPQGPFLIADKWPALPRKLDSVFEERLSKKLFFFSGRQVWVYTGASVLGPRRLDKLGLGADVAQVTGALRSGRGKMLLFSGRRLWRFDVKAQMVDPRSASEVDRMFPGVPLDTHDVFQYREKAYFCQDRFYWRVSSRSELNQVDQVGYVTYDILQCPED
Sequence of Stromelysin-1 (P08254 whole entry): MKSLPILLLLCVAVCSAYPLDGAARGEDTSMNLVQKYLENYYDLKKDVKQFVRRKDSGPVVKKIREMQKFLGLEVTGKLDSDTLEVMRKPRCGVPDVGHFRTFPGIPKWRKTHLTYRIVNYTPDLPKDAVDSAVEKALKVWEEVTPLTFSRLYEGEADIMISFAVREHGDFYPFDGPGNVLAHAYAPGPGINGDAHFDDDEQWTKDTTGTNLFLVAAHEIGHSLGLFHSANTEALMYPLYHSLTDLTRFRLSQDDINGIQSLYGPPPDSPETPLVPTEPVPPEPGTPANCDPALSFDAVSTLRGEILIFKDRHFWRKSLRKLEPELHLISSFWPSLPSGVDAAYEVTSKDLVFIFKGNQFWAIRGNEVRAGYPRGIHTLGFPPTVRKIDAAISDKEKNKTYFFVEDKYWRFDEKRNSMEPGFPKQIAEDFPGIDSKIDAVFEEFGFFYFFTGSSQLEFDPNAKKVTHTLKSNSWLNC

pIC50 [1]: 7.92 | pIC50 [2]: 5.05 | pIC50 [3]: 9.11 | pIC50 [4]: 9.30 | pIC50 [5]: < 4.30 | pIC50 [6]: 4.96 | pIC50 [7]: 8.30 | pIC50 [8]: 8.48
SMILES: CC1(C)OC[C@H]([C@@H](CS(=O)(=O)c2ccc(Oc3ccc(OC(F)(F)F)cc3)cc2)N(O)C=O)O1 (stereo in doubt)
